Legend:
EGFR (human) [1] = biological target: EGFR (human) (UniProt P00533); settings: snu638
EGFR (human) [2] = biological target: EGFR (human) (UniProt P00533)
EGFR (human) [3] = biological target: EGFR (human) (UniProt P00533); settings: a549
EGFR (human) [4] = biological target: EGFR (human) (UniProt P00533); settings: a431

EGFR (human), sequence (P00533 whole entry, looked up): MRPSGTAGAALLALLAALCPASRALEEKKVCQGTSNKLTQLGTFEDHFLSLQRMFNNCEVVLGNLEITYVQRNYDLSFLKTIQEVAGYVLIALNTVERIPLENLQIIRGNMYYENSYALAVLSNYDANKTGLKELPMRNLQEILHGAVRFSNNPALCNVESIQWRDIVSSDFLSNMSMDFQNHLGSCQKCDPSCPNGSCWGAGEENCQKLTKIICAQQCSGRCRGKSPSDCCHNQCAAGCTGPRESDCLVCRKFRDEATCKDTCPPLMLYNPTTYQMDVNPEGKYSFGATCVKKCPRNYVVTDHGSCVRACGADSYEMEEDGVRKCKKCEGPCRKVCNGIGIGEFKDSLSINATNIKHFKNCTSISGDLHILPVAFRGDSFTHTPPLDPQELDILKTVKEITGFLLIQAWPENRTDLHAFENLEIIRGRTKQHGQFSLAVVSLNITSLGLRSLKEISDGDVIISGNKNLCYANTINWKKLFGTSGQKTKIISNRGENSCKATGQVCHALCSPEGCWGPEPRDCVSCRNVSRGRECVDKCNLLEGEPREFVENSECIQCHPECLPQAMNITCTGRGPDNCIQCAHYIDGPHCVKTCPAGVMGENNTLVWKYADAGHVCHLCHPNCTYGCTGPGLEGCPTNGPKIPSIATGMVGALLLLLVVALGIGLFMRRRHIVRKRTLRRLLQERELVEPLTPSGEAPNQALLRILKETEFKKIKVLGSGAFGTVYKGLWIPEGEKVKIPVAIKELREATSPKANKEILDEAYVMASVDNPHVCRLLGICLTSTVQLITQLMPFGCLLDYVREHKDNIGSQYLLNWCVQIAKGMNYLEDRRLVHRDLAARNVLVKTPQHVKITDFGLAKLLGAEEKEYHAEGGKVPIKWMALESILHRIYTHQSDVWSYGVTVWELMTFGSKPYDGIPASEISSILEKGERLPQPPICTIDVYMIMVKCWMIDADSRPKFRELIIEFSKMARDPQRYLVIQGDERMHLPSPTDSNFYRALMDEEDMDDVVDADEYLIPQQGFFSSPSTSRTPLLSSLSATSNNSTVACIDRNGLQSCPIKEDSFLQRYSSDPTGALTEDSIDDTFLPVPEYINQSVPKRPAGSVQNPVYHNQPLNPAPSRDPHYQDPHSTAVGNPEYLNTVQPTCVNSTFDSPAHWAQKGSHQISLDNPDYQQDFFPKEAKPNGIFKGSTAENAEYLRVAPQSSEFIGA

Row | Structure (SMILES) | GI50 (EGFR (human) [1]) | IC50 (EGFR (human) [2]) | GI50 (EGFR (human) [3]) | GI50 (EGFR (human) [4])
1 | Fc1ccc(Nc2ncnc3cc4c(cc23)OCCO4)cc1 | 49000 nM | 77.6 nM | 40700 nM | 1290 nM
2 | FC(F)(F)c1cccc(Nc2ncnc3cc4c(cc23)OCCO4)c1 | 2750 nM |  | 2240 nM | 140 nM
3 | Ic1cccc(Nc2ncnc3cc4c(cc23)OCCO4)c1 | 6170 nM | 63 nM | 5620 nM | 1550 nM
4 | c1ccc(Nc2ncnc3cc4c(cc23)OCCO4)cc1 | 55000 nM |  | 45700 nM | 3800 nM
5 | Brc1cccc(Nc2ncnc3cc4c(cc23)OCCO4)c1 | 5750 nM | 17.8 nM | 4370 nM | 200 nM
6 | Cc1cc(C)cc(Nc2ncnc3cc4c(cc23)OCCO4)c1 | 170 nM |  | 230 nM | 120 nM
7 | Fc1cc(Nc2ncnc3cc4c(cc23)OCCO4)ccc1Cl | > 100000 nM |  | 75900 nM | 490 nM
8 | Clc1cccc(Nc2ncnc3cc4c(cc23)OCCO4)c1 | 4680 nM | 8.3 nM | 4270 nM | 190 nM
